# Test results from patent US20100267561A1, “HERBICIDAL PYRIDAZINONE DERIVATIVES” (priority 2007, published 2010).
# What was measured:
# Assay in all cases: Test E pre-/postemergence plant response
# Format in all cases: in vivo
# [1] = test system: surinam grass (Brachiaria decumbens); conditions: scale 0 to 100
# In short: (§1)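 Seeds were planted and treated preemergence with compound formulated in a non-phytotoxic solvent mixture containing surfactant; postemergence sprays in the same formulation went onto plants 2 to 18 cm tall (1- to 4-leaf stage). After 14 to 21 days in a greenhouse, injury versus untreated controls was rated visually, 0 (no effect) to 100 (complete control).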
# [2] = test system: naked crabgrass (Digitaria nuda); conditions: scale 0 to 100
# In short: as §1
# [3] = test system: purple nutsedge (Cyperus rotundus); conditions: scale 0 to 100
# In short: as §1
# [4] = test system: common groundsel (Senecio vulgaris); conditions: scale 0 to 100
# In short: as §1
# [5] = test system: johnsongrass (Sorghum halepense); conditions: scale 0 to 100
# In short: as §1
# [6] = test system: itchgrass (Rottboellia cochinchinensis); conditions: scale 0 to 100
# In short: as §1
# [7] = test system: barnyardgrass (Echinochloa crus-galli); conditions: scale 0 to 100
# In short: as §1
# [8] = test system: dallisgrass (Paspalum dilatatum); conditions: scale 0 to 100
# In short: as §1
# [9] = test system: green foxtail (Setaria viridis); conditions: scale 0 to 100
# In short: as §1
# [10] = test system: guineagrass (Panicum maximum); conditions: scale 0 to 100
# In short: as §1
# [11] = test system: prickly sida (Sida spinosa); conditions: scale 0 to 100
# In short: as §1
# [12] = test system: kochia (Kochia scoparia); conditions: Preemergence, scale 0 to 100
# In short: as §1
# [13] = test system: annual bluegrass (Poa annua); conditions: scale 0 to 100
# In short: as §1
# [14] = test system: southern (S.) sandbur (Cenchrus echinatus); conditions: scale 0 to 100
# In short: as §1
# [15] = test system: Italian ryegrass (Lolium multiflorum); conditions: scale 0 to 100
# In short: as §1
# [16] = test system: common purslane (Portulaca oleracea); conditions: scale 0 to 100
# In short: as §1
# [17] = test system: common mallow (Malva sylvestris); conditions: scale 0 to 100
# In short: as §1
# [18] = test system: Russian thistle (Salsola kali); conditions: Preemergence, scale 0 to 100
# In short: as §1
compound,measurement,setting,value
CCOC(=O)Oc1cnn(C)c(=O)c1-n1nc(-c2ccc(Cl)cc2)cc1C [Compound 53],"Plant response rating, Surinam Grass","[1]; 16 g ai/ha, Preemergence",100
same,"Plant response rating, Surinam Grass","[1]; 31 g ai/ha, Preemergence",100
same,"Plant response rating, Surinam Grass","[1]; 62 g ai/ha, Preemergence",100
same,"Plant response rating, Surinam Grass","[1]; Postemergence, 8 g ai/ha",90
same,"Plant response rating, Surinam Grass","[1]; Postemergence, 16 g ai/ha",90
same,"Plant response rating, Surinam Grass","[1]; Postemergence, 31 g ai/ha",100
same,"Plant response rating, Surinam Grass","[1]; Postemergence, 62 g ai/ha",100
same,"Plant response rating, Crabgrass, Naked","[2]; 16 g ai/ha, Preemergence",80
same,"Plant response rating, Crabgrass, Naked","[2]; 31 g ai/ha, Preemergence",100
same,"Plant response rating, Crabgrass, Naked","[2]; 62 g ai/ha, Preemergence",100
same,"Plant response rating, Crabgrass, Naked","[2]; Postemergence, 8 g ai/ha",30
same,"Plant response rating, Crabgrass, Naked","[2]; Postemergence, 16 g ai/ha",80
same,"Plant response rating, Crabgrass, Naked","[2]; Postemergence, 31 g ai/ha",98
same,"Plant response rating, Crabgrass, Naked","[2]; Postemergence, 62 g ai/ha",100
same,"Plant response rating, Nutsedge, Purple","[3]; 16 g ai/ha, Preemergence",0
same,"Plant response rating, Nutsedge, Purple","[3]; 31 g ai/ha, Preemergence",35
same,"Plant response rating, Nutsedge, Purple","[3]; 62 g ai/ha, Preemergence",98
same,"Plant response rating, Nutsedge, Purple","[3]; Postemergence, 8 g ai/ha",0
same,"Plant response rating, Nutsedge, Purple","[3]; Postemergence, 16 g ai/ha",0
same,"Plant response rating, Nutsedge, Purple","[3]; Postemergence, 31 g ai/ha",0
same,"Plant response rating, Nutsedge, Purple","[3]; Postemergence, 62 g ai/ha",0
same,"Plant response rating, Groundsel","[4]; 16 g ai/ha, Preemergence",0
same,"Plant response rating, Groundsel","[4]; 31 g ai/ha, Preemergence",0
same,"Plant response rating, Groundsel","[4]; 62 g ai/ha, Preemergence",0
same,"Plant response rating, Groundsel","[4]; Postemergence, 8 g ai/ha",0
same,"Plant response rating, Groundsel","[4]; Postemergence, 16 g ai/ha",0
same,"Plant response rating, Groundsel","[4]; Postemergence, 31 g ai/ha",0
same,"Plant response rating, Groundsel","[4]; Postemergence, 62 g ai/ha",0
same,"Plant response rating, Johnsongrass","[5]; 16 g ai/ha, Preemergence",70
same,"Plant response rating, Johnsongrass","[5]; 31 g ai/ha, Preemergence",90
same,"Plant response rating, Johnsongrass","[5]; 62 g ai/ha, Preemergence",95
same,"Plant response rating, Johnsongrass","[5]; Postemergence, 8 g ai/ha",50
same,"Plant response rating, Johnsongrass","[5]; Postemergence, 16 g ai/ha",100
same,"Plant response rating, Johnsongrass","[5]; Postemergence, 31 g ai/ha",100
same,"Plant response rating, Johnsongrass","[5]; Postemergence, 62 g ai/ha",100
same,"Plant response rating, Itchgrass","[6]; 16 g ai/ha, Preemergence",75
same,"Plant response rating, Itchgrass","[6]; 31 g ai/ha, Preemergence",85
same,"Plant response rating, Itchgrass","[6]; 62 g ai/ha, Preemergence",90
same,"Plant response rating, Itchgrass","[6]; Postemergence, 8 g ai/ha",70
same,"Plant response rating, Itchgrass","[6]; Postemergence, 16 g ai/ha",90
same,"Plant response rating, Itchgrass","[6]; Postemergence, 31 g ai/ha",95
same,"Plant response rating, Itchgrass","[6]; Postemergence, 62 g ai/ha",98
same,"Plant response rating, Barnyardgrass","[7]; 16 g ai/ha, Preemergence",95
same,"Plant response rating, Barnyardgrass","[7]; 31 g ai/ha, Preemergence",100
same,"Plant response rating, Barnyardgrass","[7]; 62 g ai/ha, Preemergence",100
same,"Plant response rating, Barnyardgrass","[7]; Postemergence, 8 g ai/ha",100
same,"Plant response rating, Barnyardgrass","[7]; Postemergence, 16 g ai/ha",100
same,"Plant response rating, Barnyardgrass","[7]; Postemergence, 31 g ai/ha",100
same,"Plant response rating, Barnyardgrass","[7]; Postemergence, 62 g ai/ha",100
same,"Plant response rating, Dallisgrass","[8]; 16 g ai/ha, Preemergence",65
same,"Plant response rating, Dallisgrass","[8]; 31 g ai/ha, Preemergence",80
same,"Plant response rating, Dallisgrass","[8]; 62 g ai/ha, Preemergence",95
same,"Plant response rating, Dallisgrass","[8]; Postemergence, 8 g ai/ha",0
same,"Plant response rating, Dallisgrass","[8]; Postemergence, 16 g ai/ha",20
same,"Plant response rating, Dallisgrass","[8]; Postemergence, 31 g ai/ha",30
same,"Plant response rating, Dallisgrass","[8]; Postemergence, 62 g ai/ha",75
same,"Plant response rating, Foxtail, Green","[9]; 16 g ai/ha, Preemergence",20
same,"Plant response rating, Foxtail, Green","[9]; 31 g ai/ha, Preemergence",65
same,"Plant response rating, Foxtail, Green","[9]; 62 g ai/ha, Preemergence",100
same,"Plant response rating, Foxtail, Green","[9]; Postemergence, 8 g ai/ha",70
same,"Plant response rating, Foxtail, Green","[9]; Postemergence, 16 g ai/ha",80
same,"Plant response rating, Foxtail, Green","[9]; Postemergence, 31 g ai/ha",90
same,"Plant response rating, Foxtail, Green","[9]; Postemergence, 62 g ai/ha",100
same,"Plant response rating, Guineagrass","[10]; 16 g ai/ha, Preemergence",98
same,"Plant response rating, Guineagrass","[10]; 31 g ai/ha, Preemergence",100
same,"Plant response rating, Guineagrass","[10]; 62 g ai/ha, Preemergence",100
same,"Plant response rating, Guineagrass","[10]; Postemergence, 8 g ai/ha",90
same,"Plant response rating, Guineagrass","[10]; Postemergence, 16 g ai/ha",98
same,"Plant response rating, Guineagrass","[10]; Postemergence, 31 g ai/ha",100
same,"Plant response rating, Guineagrass","[10]; Postemergence, 62 g ai/ha",100
same,"Plant response rating, Prickly Sida","[11]; 16 g ai/ha, Preemergence",0
same,"Plant response rating, Prickly Sida","[11]; 31 g ai/ha, Preemergence",0
same,"Plant response rating, Prickly Sida","[11]; 62 g ai/ha, Preemergence",0
same,"Plant response rating, Prickly Sida","[11]; Postemergence, 8 g ai/ha",0
same,"Plant response rating, Prickly Sida","[11]; Postemergence, 16 g ai/ha",0
same,"Plant response rating, Prickly Sida","[11]; Postemergence, 31 g ai/ha",0
same,"Plant response rating, Prickly Sida","[11]; Postemergence, 62 g ai/ha",0
same,"Plant response rating, Kochia",[12]; 16 g ai/ha,0
same,"Plant response rating, Kochia",[12]; 31 g ai/ha,0
same,"Plant response rating, Bluegrass","[13]; 16 g ai/ha, Preemergence",0
same,"Plant response rating, Bluegrass","[13]; 31 g ai/ha, Preemergence",0
same,"Plant response rating, Bluegrass","[13]; 62 g ai/ha, Preemergence",60
same,"Plant response rating, Bluegrass","[13]; Postemergence, 8 g ai/ha",0
same,"Plant response rating, Bluegrass","[13]; Postemergence, 16 g ai/ha",0
same,"Plant response rating, Bluegrass","[13]; Postemergence, 31 g ai/ha",0
same,"Plant response rating, Bluegrass","[13]; Postemergence, 62 g ai/ha",0
same,"Plant response rating, Sandbur, S.","[14]; 16 g ai/ha, Preemergence",30
same,"Plant response rating, Sandbur, S.","[14]; 31 g ai/ha, Preemergence",100
same,"Plant response rating, Sandbur, S.","[14]; 62 g ai/ha, Preemergence",100
same,"Plant response rating, Sandbur, S.","[14]; Postemergence, 8 g ai/ha",65
same,"Plant response rating, Sandbur, S.","[14]; Postemergence, 16 g ai/ha",80
same,"Plant response rating, Sandbur, S.","[14]; Postemergence, 31 g ai/ha",95
same,"Plant response rating, Sandbur, S.","[14]; Postemergence, 62 g ai/ha",100
same,"Plant response rating, Ryegrass, Italian","[15]; 16 g ai/ha, Preemergence",90
same,"Plant response rating, Ryegrass, Italian","[15]; 31 g ai/ha, Preemergence",100
same,"Plant response rating, Ryegrass, Italian","[15]; 62 g ai/ha, Preemergence",100
same,"Plant response rating, Ryegrass, Italian","[15]; Postemergence, 8 g ai/ha",80
same,"Plant response rating, Ryegrass, Italian","[15]; Postemergence, 16 g ai/ha",100
same,"Plant response rating, Ryegrass, Italian","[15]; Postemergence, 31 g ai/ha",100
same,"Plant response rating, Ryegrass, Italian","[15]; Postemergence, 62 g ai/ha",100
same,"Plant response rating, Purslane","[16]; 16 g ai/ha, Preemergence",0
same,"Plant response rating, Purslane","[16]; 31 g ai/ha, Preemergence",0
same,"Plant response rating, Purslane","[16]; 62 g ai/ha, Preemergence",0
same,"Plant response rating, Purslane","[16]; Postemergence, 8 g ai/ha",0
same,"Plant response rating, Purslane","[16]; Postemergence, 16 g ai/ha",0
same,"Plant response rating, Purslane","[16]; Postemergence, 31 g ai/ha",0
same,"Plant response rating, Purslane","[16]; Postemergence, 62 g ai/ha",0
same,"Plant response rating, Mallow","[17]; 62 g ai/ha, Preemergence",0
same,"Plant response rating, Mallow","[17]; Postemergence, 8 g ai/ha",0
same,"Plant response rating, Mallow","[17]; Postemergence, 16 g ai/ha",0
same,"Plant response rating, Mallow","[17]; Postemergence, 31 g ai/ha",0
same,"Plant response rating, Mallow","[17]; Postemergence, 62 g ai/ha",0
same,"Plant response rating, Thistle, Russian",[18]; 16 g ai/ha,0
same,"Plant response rating, Thistle, Russian",[18]; 31 g ai/ha,0
same,"Plant response rating, Thistle, Russian",[18]; 62 g ai/ha,0
